The source of these data is patent US6784137B2, “6-aryl-4-aminopicolinates and their use as herbicides” (Dow AgroSciences LLC, priority 2001, dated 2004).

Like-named read-outs stand apart in the source and are kept apart here.

Data set [1] concerns Barnyardgrass (Echinochloa crus-galli). Kind of data set: Postemergence herbicidal activity, greenhouse spray. Format: in vivo. Conditions: Echinochloa crus-galli, post-emergence, 336 h, visual score after 2 weeks, read-out: Post-emergent % control ECHCG; for pest or weed control at 125 ppm: rate 125 ppm; for pest or weed control at 500 ppm: rate 500 ppm; for pest or weed control at 250 ppm: rate 250 ppm. The method in brief: (§1)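 Postemergence application by compressed-air atomizer ([…]) onto plants at the 1-2 true leaf stage; rates set by serial dilution of acetone:DMSO stock into the spray carrier. Plants were kept in a greenhouse with ~15 hr photoperiod and sub-irrigated.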

Data set [2] deals with Cocklebur (Xanthium strumarium). The description is as above. Conditions: Xanthium strumarium, post-emergence, 336 h, visual score after 2 weeks, read-out: Post-emergent % control XANST; for pest or weed control at 125 ppm: rate 125 ppm; for pest or weed control at 500 ppm: rate 500 ppm, 0 no injury, 100 complete kill; for pest or weed control at 250 ppm: rate 250 ppm. Format: in vivo. In outline:
as §1

The subject of data set [3] is Lambsquarter (Chenopodium album). The description is as above. Format: in vivo. Conditions: Chenopodium album, post-emergence, 336 h, visual score after 2 weeks, read-out: Post-emergent % control CHEAL; for pest or weed control at 125 ppm: rate 125 ppm; for pest or weed control at 500 ppm: rate 500 ppm; for pest or weed control at 250 ppm: rate 250 ppm. The method in brief: as §1

Data set [4] deals with Yellow nutsedge (Cyperus esculentus). The description is as above. Format: in vivo. Conditions: Cyperus, post-emergence, 336 h, visual score after 2 weeks, read-out: Post-emergent % control CYPES; for pest or weed control at 125 ppm: rate 125 ppm; for pest or weed control at 500 ppm: rate 500 ppm; for pest or weed control at 250 ppm: rate 250 ppm. In outline:
as §1

Data set [5] concerns Crabgrass(large) (Digitaria sanguinalis). Kind of data set: Preemergence herbicidal activity, soil spray. Format: in vivo. Particulars: Digitaria sanguinalis, pre-emergence, 504 h, Table 5, visual score after 3 weeks, read-out: Pre-emergent % control DIGSA; for pest or weed control at 140 ppm: rate 140 ppm. The method in brief: (§2)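 Preemergence soil application onto freshly seeded pots. Carrier: 99.9:0.1 water:Tween 155 after acetone/DMSO solubilisation. Greenhouse, ~15 hr photoperiod, supplemental metal halide lighting, regular nutrients and top watering.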

Data set [6] concerns Giant Foxtail (Setaria faberi). Kind of data set: Preemergence herbicidal activity, soil spray. Format: in vivo. Particulars: Setaria faberi, pre-emergence, 504 h, Table 5, visual score after 3 weeks, read-out: Pre-emergent % control SETFA; for pest or weed control at 140 ppm: rate 140 ppm. In outline: as §2
Data set [7] relates to Lambsquarter (Chenopodium album). Kind of data set: Preemergence herbicidal activity, soil spray. Format: in vivo. Particulars: Chenopodium album, pre-emergence, 504 h, Table 5, visual score after 3 weeks, read-out: Pre-emergent % control CHEAL; for pest or weed control at 140 ppm: rate 140 ppm. The method in brief: as §2
In data set [8] the test system is Pigweed (redroot) (Amaranthus retroflexus). Put plainly: Preemergence herbicidal activity, soil spray. Format: in vivo. Particulars: Amaranthus retroflexus, pre-emergence, 504 h, Table 5, visual score after 3 weeks, read-out: Pre-emergent % control AMARE; for pest or weed control at 140 ppm: rate 140 ppm. In outline:
as §2

`Nc1cc(-c2ccc(C(F)(F)F)cc2)nc(C(=O)O)c1Cl` [Compound 152, 4-Amino-3-chloro-6-[4-(trifluoromethyl)phenyl]pyridine-2-carboxylic acid]: the melting point – broadly, the temperature of the solid-liquid transition – fell in the range of 175 to 176 °C. Besides, the pest or weed control at 125 ppm in [1] (Table 1) was 90%. Also, the pest or weed control at 125 ppm in data set [2] (Table 1) was determined as 100%. Moreover, the pest or weed control at 125 ppm in [3] (Table 1) was 100%. Moreover, the pest or weed control at 125 ppm in data set [4] (Table 1) amounted to 95%. Also, in data set [5], the pest or weed control at 140 ppm was determined as 100%. Besides, the pest or weed control at 140 ppm in data set [6] was 100%. Moreover, the pest or weed control at 140 ppm in data set [7] was determined as 100%. Further, the pest or weed control at 140 ppm in data set [8] came to 95%.

Molecule `Nc1cc(-c2ccc(Cl)cc2)nc(C(=O)O)c1Cl` [Compound 154, 4-Amino-3-chloro-6-(4-chlorophenyl)pyridine-2-carboxylic acid] returned a melting point of 165 °C. Moreover, in data set [1] (Table 1), the pest or weed control at 500 ppm came out at 100%. Further, the pest or weed control at 125 ppm in data set [1] (Table 2) was determined as 70%. In addition, in data set [2] (Table 1), the pest or weed control at 500 ppm amounted to 100%. Further, the pest or weed control at 125 ppm in [2] (Table 2) came to 100%. For the same molecule, the pest or weed control at 500 ppm in data set [3] (Table 1) amounted to 100%. Further, the pest or weed control at 125 ppm in data set [3] (Table 2) amounted to 100%. Besides, the pest or weed control at 500 ppm in [4] (Table 1) amounted to 100%. The pest or weed control at 125 ppm in data set [4] (Table 2) is 90%. The pest or weed control at 140 ppm in [5] is 100%. The pest or weed control at 140 ppm in [6] turned out to be 100%. In addition, the pest or weed control at 140 ppm in [7] turned out to be 100%. Moreover, in data set [8], the pest or weed control at 140 ppm worked out at 100%.

`Cc1ccc(-c2cc(N)c(Cl)c(C(=O)O)n2)c(F)c1` [Compound 158, 4-Amino-3-chloro-6-(2-fluoro-4-methylphenyl)pyridine-2-carboxylic acid]: the melting point lay in the range of 187 to 189 °C. Also, the pest or weed control at 500 ppm in [1] (Table 1) came to 95%. Also, the pest or weed control at 500 ppm in [2] (Table 1) is 100%. Further, the pest or weed control at 500 ppm in data set [3] (Table 1) was 100%. Further, the pest or weed control at 500 ppm in [4] (Table 1) stood at 70%. In addition, in data set [5], the pest or weed control at 140 ppm was 98%. Also, the pest or weed control at 140 ppm in data set [6] was found to be 100%. The pest or weed control at 140 ppm in [7] is 100%. Also, the pest or weed control at 140 ppm in data set [8] came out at 100%.

On to `Cc1ccc(-c2nc(C(=O)O)c(Cl)c(N)c2F)cc1` [Compound 163, 4-Amino-3-chloro-5-fluoro-6-(4-methylphenyl)pyridine-2-carboxylic acid], for which the melting point is 145 to 148 °C (dec.). Also, the pest or weed control at 250 ppm in [1] (Table 1) worked out at 70%. Besides, the pest or weed control at 125 ppm in data set [1] (Table 2) is 70%. The pest or weed control at 250 ppm in data set [2] (Table 1) is 100%. Also, in data set [2] (Table 2), the pest or weed control at 125 ppm amounted to 100%. The pest or weed control at 250 ppm in data set [3] (Table 1) was 95%. For the same molecule, the pest or weed control at 125 ppm in [3] (Table 2) was 90%. For the same molecule, in data set [4] (Table 1), the pest or weed control at 250 ppm came to 70%. In data set [4] (Table 2), the pest or weed control at 125 ppm was found to be 70%. In addition, the pest or weed control at 140 ppm in data set [5] came out at 100%. In [6], the pest or weed control at 140 ppm came to 95%. Further, the pest or weed control at 140 ppm in data set [7] is 100%. Further, the pest or weed control at 140 ppm in data set [8] amounted to 98%.

`Nc1cc(-c2ccc(Cl)cc2F)nc(C(=O)O)c1Cl` [Compound 168, 4-Amino-3-chloro-6-(4-chloro-2-fluorophenyl)pyridine-2-carboxylic acid] displayed a melting point of 162 to 163 °C. Further, the pest or weed control at 500 ppm in data set [1] (Table 1) stood at 85%. For the same molecule, the pest or weed control at 500 ppm in [2] (Table 1) amounted to 100%. Besides, the pest or weed control at 500 ppm in [3] (Table 1) came out at 100%. In data set [4] (Table 1), the pest or weed control at 500 ppm turned out to be 90%. Also, in data set [5], the pest or weed control at 140 ppm came to 100%. Also, the pest or weed control at 140 ppm in data set [6] worked out at 100%. Moreover, the pest or weed control at 140 ppm in [7] was found to be 100%. Besides, the pest or weed control at 140 ppm in data set [8] stood at 100%.

Molecule `CCc1ccc(-c2cc(N)c(Cl)c(C(=O)O)n2)cc1` [Compound 175, 4-Amino-3-chloro-6-(4-ethylphenyl)pyridine-2-carboxylic acid] had a melting point of 152 °C. Moreover, the pest or weed control at 500 ppm in data set [1] (Table 1) was determined as 80%. Moreover, the pest or weed control at 500 ppm in data set [2] (Table 1) came to 100%. Moreover, in data set [3] (Table 1), the pest or weed control at 500 ppm came to 99%. Also, the pest or weed control at 500 ppm in data set [4] (Table 1) was found to be 0%. Besides, in data set [5], the pest or weed control at 140 ppm came to 100%. In addition, in [6], the pest or weed control at 140 ppm is 95%. The pest or weed control at 140 ppm in [7] stood at 100%. Further, in data set [8], the pest or weed control at 140 ppm was determined as 95%.

The molecule `Nc1cc(-c2ccc(Cl)c(F)c2)nc(C(=O)O)c1Cl` [Compound 181, 4-Amino-3-chloro-6-(4-chloro-3-fluorophenyl)pyridine-2-carboxylic acid] yielded a melting point of 156 to 157 °C. Also, the pest or weed control at 500 ppm in data set [1] (Table 1) worked out at 100%. In addition, the pest or weed control at 125 ppm in [1] (Table 2) was found to be 70%. In addition, in data set [2] (Table 1), the pest or weed control at 500 ppm turned out to be 100%. Also, the pest or weed control at 125 ppm in data set [2] (Table 2) came out at 100%. Moreover, the pest or weed control at 500 ppm in data set [3] (Table 1) stood at 100%. For the same molecule, the pest or weed control at 125 ppm in data set [3] (Table 2) worked out at 100%. In [4] (Table 1), the pest or weed control at 500 ppm came to 100%. Moreover, in [4] (Table 2), the pest or weed control at 125 ppm amounted to 85%. In data set [5], the pest or weed control at 140 ppm is 100%. Also, the pest or weed control at 140 ppm in data set [6] came out at 100%. Also, the pest or weed control at 140 ppm in data set [7] was 100%. For the same molecule, the pest or weed control at 140 ppm in [8] came to 100%.

The molecule `Nc1c(F)c(-c2ccc(Cl)cc2F)nc(C(=O)O)c1Cl` [Compound 189, 4-Amino-3-chloro-5-fluoro-6-(4-chloro-2-fluorophenyl)pyridine-2-carboxylic acid] came in with a melting point of 154 to 155 °C. Moreover, in data set [1] (Table 2), the pest or weed control at 125 ppm was found to be 90%. For the same molecule, the pest or weed control at 125 ppm in [2] (Table 2) turned out to be 90%. In addition, the pest or weed control at 125 ppm in data set [3] (Table 2) is 90%. The pest or weed control at 125 ppm in [4] (Table 2) is 90%. Also, in data set [5], the pest or weed control at 140 ppm was 100%. The pest or weed control at 140 ppm in data set [6] stood at 100%. The pest or weed control at 140 ppm in data set [7] is 100%. The pest or weed control at 140 ppm in data set [8] is 100%.

Take `Nc1c(F)c(-c2ccc3c(c2)OCO3)nc(C(=O)O)c1Cl` [Compound 196, 4-Amino-3-chloro-5-fluoro-6-(3,4-methylenedioxyphenyl)pyridine-2-carboxylic acid]: the melting point was found to be 169 °C. For the same molecule, the pest or weed control at 250 ppm in [1] (Table 1) was determined as 100%. Also, the pest or weed control at 125 ppm in data set [1] (Table 2) turned out to be 100%. In [2] (Table 1), the pest or weed control at 250 ppm worked out at 100%. Besides, the pest or weed control at 125 ppm in [2] (Table 2) was found to be 100%. Moreover, the pest or weed control at 250 ppm in data set [3] (Table 1) amounted to 100%. In data set [3] (Table 2), the pest or weed control at 125 ppm came to 100%. Further, the pest or weed control at 250 ppm in [4] (Table 1) worked out at 98%. Further, in data set [4] (Table 2), the pest or weed control at 125 ppm amounted to 100%. Also, in [5] (rate 560 ppm), the pest or weed control at 560 ppm came to 100%. In addition, in data set [6] (rate 560 ppm), the pest or weed control at 560 ppm was determined as 100%. Also, the pest or weed control at 560 ppm in [7] (rate 560 ppm, 100 complete kill or no germination) came to 100%. Moreover, the pest or weed control at 560 ppm in data set [8] (rate 560 ppm) amounted to 100%.
